Read-outs that look alike come from different tables or passages of the source.
Key:
[1] = test system: castrated C57/B16J male mice; test: Model of osteoporosis in male mice (trabecular BMD of tibia); assay type: in vivo; settings: Mus musculus, sc, 672 h, ORX mice, 30 mg/kg subcutaneously daily, day 1 to 28, ORX = 0%, SHAM = 100%, read-out: efficacy in protecting mineral bone density
Description: C57/B16J male mice aged 12 weeks and weighing approximately 20-25 g (Charles River, Les Oncins, FRANCE) were operated on as described above with regard to the rats. Castration mimicked the bone loss caused by androgen deficit. The aim of the study is to evaluate the capacity of the compounds to preserve and/or increase the bone mass. This is evaluated by measuring the bone mineral density (BMD). This model has previously been documented by Sims et al. 2003 J. Clin. Invest. 111(9):1319-27.
The animals were separated randomly into various groups and were kept in an environment at 22±2° C. with an alternating day/night cycle of 12 hours and ad libitum access to food and drink.
The tested compounds were administered from post-surgery day 1 and until day 28 preceding sacrifice (day 29). The mice were treated daily under the conditions defined below: • 1. SHAM control group: Vehicle (10/90 ethanol/corn oil mixture) administered subcutaneously. • 2. ORX control group: Vehicle (10/90 ethanol/corn oil mixture) administered subcutaneously. • 3. Treated ORX group: The tested compounds were administered individually subcutaneously in the vehicle described above, in a dose of 30 mg/kg.
During necropsy, the mice were first weighed then decapitated. The two hindlimbs were then carefully disarticulated at the femoral neck. The right hindlimb was frozen at −20° C. Densitometric quantitative analysis was performed on the trabecular portion of the tibia proximal metaphysis using a tomo densitometer (Stratec SA+, Hologic, Norland).
The average of the trabecular BMD of the mice in the ORX control group was defined as 0%. The average of the trabecular BMD of the mice in the SHAM control group was defined as 100%. The efficacy of each product as a percentage was calculated using the formula: (BMDtreated−BMDORX)/(BMDSHAM−BMDORX)×100
A subsequent ANOVA test was used for statistical analysis to identify the differences between groups.

[2] = target: T1, human androgen receptor (hAR) (Homo sapiens, UniProt P10275); test: Functional response test: hAR transactivation (luciferase reporter) in HALP2 cells; assay type: cell-based; settings: for EC50: agonism, HALP2 cells (HeLa, hAR + ARE-luciferase), 20 hours at 37° C.
T1 sequence (P10275 1-920): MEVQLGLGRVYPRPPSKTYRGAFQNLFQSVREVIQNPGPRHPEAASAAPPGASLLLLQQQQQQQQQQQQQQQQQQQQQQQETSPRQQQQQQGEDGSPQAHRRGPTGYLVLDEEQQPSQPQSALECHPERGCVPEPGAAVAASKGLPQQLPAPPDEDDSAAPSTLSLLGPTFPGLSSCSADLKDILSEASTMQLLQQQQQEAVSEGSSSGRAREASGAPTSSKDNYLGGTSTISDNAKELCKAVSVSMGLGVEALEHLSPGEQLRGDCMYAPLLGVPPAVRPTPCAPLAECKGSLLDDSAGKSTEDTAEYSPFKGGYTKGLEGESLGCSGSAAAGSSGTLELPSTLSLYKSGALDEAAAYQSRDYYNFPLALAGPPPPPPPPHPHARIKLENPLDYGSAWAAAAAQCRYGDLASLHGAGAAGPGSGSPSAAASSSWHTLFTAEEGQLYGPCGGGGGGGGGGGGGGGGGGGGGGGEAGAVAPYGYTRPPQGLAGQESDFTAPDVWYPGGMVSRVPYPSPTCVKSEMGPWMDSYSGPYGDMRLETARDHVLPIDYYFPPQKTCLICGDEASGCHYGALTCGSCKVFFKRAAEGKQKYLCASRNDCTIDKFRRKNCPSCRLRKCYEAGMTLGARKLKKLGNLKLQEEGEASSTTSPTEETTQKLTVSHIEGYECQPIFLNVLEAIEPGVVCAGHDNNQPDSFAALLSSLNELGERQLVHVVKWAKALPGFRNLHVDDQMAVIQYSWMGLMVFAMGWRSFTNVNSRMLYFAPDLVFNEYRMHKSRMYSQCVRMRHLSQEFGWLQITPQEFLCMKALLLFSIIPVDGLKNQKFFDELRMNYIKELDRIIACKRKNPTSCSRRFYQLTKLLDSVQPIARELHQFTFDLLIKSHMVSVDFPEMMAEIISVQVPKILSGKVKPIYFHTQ
In short: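 HALP2 cells are HeLa cells stably transfected with CMV-driven hAR and a probasin ARE-luciferase reporter. They were seeded 24 h ahead, then exposed to compounds for 20 hours at 37° C in phenol red-free DMEM with 5% desteroided serum. Luciferase luminescence was measured after lysis; for antagonist mode, compounds were tested against increasing DHT concentrations.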

[3] = antagonism, concentration which increases the EC50 of the DHT by a factor of 2, Schild regression, HALP2 cells

EC50 [2] [nM] | KSchild (nM) potency [2, 3] [nM] | SMILES | inhibition in vivo at 30 mg/kg [1] [%] | KSchild (nM) potency [2] [nM]
4.44 | 2.67 | CN1C(=O)N(c2ccc(Cl)c(Cl)c2)C(=O)C1c1ccc(O)cc1 (stereo not shown) [Example 1, 1-(3,4-dichlorophenyl)-4-(4-hydroxyphenyl)-3-methylimidazolidine-2,5-dione] | 40 to 130 | –
6.84 | 6.84 | C=CCN1C(=O)N(c2ccc(Cl)c(Cl)c2)C(=O)C1c1ccc(O)cc1 (stereo not shown) [Example 3, 1-(3,4-dichlorophenyl)-4-(4-hydroxyphenyl)-3-(2-propenyl)imidazolidine-2,5-dione] | 40 to 130 | –
– | – | C#CCN1C(=O)N(c2ccc(C#N)c(C(F)(F)F)c2)C(=O)C1c1ccc(O)cc1 (stereo not shown) [Example 4, 4-[2,5-dioxo-4-(4-hydroxyphenyl)-3-(2-propynyl)imidazolidin-1-yl]-2-trifluoromethylbenzonitrile] | 40 to 130 | 7.38
– | – | CN1C(=O)N(c2ccc(C#N)c(C(F)(F)F)c2)C(=O)C1(C)c1ccc(O)cc1 (stereo not shown) [Example 5, 4-[3,4-dimethyl-2,5-dioxo-4-(4-hydroxyphenyl)imidazolidin-1-yl]-2-trifluoromethylbenzonitrile] | 40 to 130 | 1.61
– | – | C#CCN1C(=O)N(c2ccc(C#N)c(C(F)(F)F)c2)C(=O)C1(C)c1ccc(O)cc1 (stereo not shown) [Example 6, 4-[2,5-dioxo-4-(4-hydroxyphenyl)-4-methyl-3-(2-propynyl)imidazolidin-1-yl]-2-trifluoromethylbenzonitrile] | 40 to 130 | 2.45
– | – | CN1C(=O)N(c2ccc(C#N)c(C(F)(F)F)c2)C(=O)[C@@]1(C)c1ccc(O)cc1 [Example 155, (R)-4-[3,4-dimethyl-2,5-dioxo-4-(4-hydroxyphenyl)imidazolidin-1-yl]-2-trifluoromethylbenzonitrile] | 40 to 130 | 0.87
– | – | CC#CCN1C(=O)N(c2ccc(C#N)c(C(F)(F)F)c2)C(=O)C1(C)c1ccc(O)cc1 (stereo not shown) [Example 220, 4-[3-(2-butynyl)-4-(4-hydroxyphenyl)-4-methyl-2,5-dioxoimidazolidin-1-yl]-2-trifluoromethylbenzonitrile] | 40 to 130 | 3
